# Data: patent publication US10456365B2, “Methods and formulations for supporting and promoting bone health” (Primus Pharmaceuticals, Inc., priority 2016, dated 2019)
# Columns and labels:
# Type in all cases: cell-based, mouse (C57BL/6)
# [1] = test system: differentiation of bone marrow cells to adipocytes; experiment: Adipogenesis in bone marrow cell culture
# Method: C57BL/6 cells were prepared as 1×10^6/ml per well. These cells were cultured using 12-well plates in DMEM containing 10% FBS, 1% penicillin-steptomycin in the presence or absence of dexamethasone (1 μM/ml) and 3-isobutyl-q-methylxanthine (0.5 mM/ml) with either vehicle or β-Caryophyllene (0.1-100 μM). Medium was replaced containing insulin (10 μg/ml) without dexamethasone and 3-isobutyl-q-methylxanthine, with either the presence or absence of β-Caryophyllene (0.1-100 μM) for four days in CO2 incubator (37° C.). In other experiments, the cells were cultured without β-Caryophyllene for an additional four days. After culture, the adipocytes were stained and counted.
# Bone marrow cells (1×10^6 cells/well/ml in 12-well plates) were cultured for 3 days in DMEM containing 10% FBS, 1% penicillin-streptomycin (P/S; 10,000 U/L) in the presence or absence of the differentiation medium (DM) [dexamethasone (1 μM/ml of medium) and 3-isobutyl-1-methylxanthine (IBMX; 0.5 mM/ml of medium)] with either vehicle or β-caryophyllene (0.1-100 μM). […] After culture, the medium was removed, and adipocytes were stained with Oil Red O. Adipocytes were counted by light microscopy. For quantification, the dye was extracted with 0.2 ml of isopropanol for 1 minute, and the absorbance (490 nm) was read using a Spectra Count microplate photometer.
# [2] = test system: osteoclastogenesis; experiment: Osteoclastogenesis in bone marrow cell culture
# Method: C57BL/6 cells were prepared as 2×10^5/ml per well in 24-well plates. Cells were cultured in DMEM with 10% FBS and 1% penicillin-steptomycin in water-saturated atmosphere containing 5% CO2 and 95% air at 37° C. Cells were cultured with or without Tumor necrosis factor-α (5 ng/ml) for 3 days in the presence or absence of β-Caryophyllene (0.1-100 μM). Medium was replaced and cultures were maintained for an additional 4 days. In other experiments, the cells were cultured for 3 days and then placed in medium without β-Caryophyllene for an additional 4 days. Cells were stained with a marker enzyme of osteoclasts and washed with phosphate buffered sale solution and foxed with 10% neutralized formalin-phosphate for 10 minutes. The cells were stained with TRACP staining and incubated for 90 minutes. TRACP—positive cells containing three or more nuclei were counted as osteoclast-like cells.
# [3] = test system: osteoblastic mineralization; experiment: Mineralization in bone marrow culture
# Method: C57BL/6 cells were prepared as 1×10^6/ml per well in 12-well plates. Cells were cultured in either the presence or absence of DMEM with mineralization medium containing ascorbic acid (100 μg/ml) and 4 mM β-glycerophosphate in DMEM with 10% FBS and 1% penicillin-steptomycin. […] After culture, the cells were washed and stained. After elution with 10% cetylpyridinium chloride solution, the absorbance at 570 nm on a microtiter plate reader.
structure (smiles),measurement,setting,value
C=C1CC/C=C(\C)CC[C@@H]2[C@@H]1CC2(C)C [β-Caryophyllene],differentiation of bone marrow cells to adipocytes,"[1]; 0.1-100 μM, 7 days, differentiation medium with or without insulin (FIG. 1)",suppressed differentiation of from bone marrow cells to adipocytes
same,differentiation of bone marrow cells to adipocytes,[1]; C57BL/6 cells cultured for 7 days with or without β-Caryophyllene,suppressed differentiation of bone marrow cells to adipocytes
same,osteoclastogenesis,"[2]; 7 days, medium containing Tumor necrosis factor-α",suppressed osteoclastogenesis
same,osteoclastogenesis,"[2]; cultured in Tumor necrosis factor-α with β-Caryophyllene, then without β-Caryophyllene for additional 4 days",also exhibited suppression of osteoclastogenesis
same,osteoblastic mineralization,"[3]; 18 days, mineralization medium",stimulated osteoblastic mineralization
same,osteoblastic mineralization,"[3]; β-Caryophyllene for 7 days, then medium without it for additional 11 days",Stimulation was also seen
